In patent publication US8802673B2, “Heterocyclic amine derivatives” (Hoffmann-La Roche Inc, priority 2011, dated 2014):

Assays:
mouse TAAR1 = mouse TAAR1 (Mus musculus (Mouse), UniProt Q923Y8); experiment: Radioligand binding assay on mouse TAAR1; details: mouse TAAR1 (first value of the cell), HEK-293 membranes; read-out: Ki (μM) mouse/rat
Outline: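 Membranes from HEK293 cells stably expressing mouse TAAR1, Kd of radioligand determined per batch by saturation. Compounds tested 10 pM to 10 μM in duplicate, incubated 1 h at 4 °C, then filtration over PEI-soaked GF/C filters and scintillation counting.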

rat TAAR1 = rat TAAR1 (Rattus norvegicus (Rat), UniProt Q923Y9); experiment: Radioligand binding assay on rat TAAR1; details: rat TAAR1 (second value of the cell), HEK-293 membranes; read-out: Ki (μM) mouse/rat
rat TAAR1, sequence (Q923Y9 whole entry): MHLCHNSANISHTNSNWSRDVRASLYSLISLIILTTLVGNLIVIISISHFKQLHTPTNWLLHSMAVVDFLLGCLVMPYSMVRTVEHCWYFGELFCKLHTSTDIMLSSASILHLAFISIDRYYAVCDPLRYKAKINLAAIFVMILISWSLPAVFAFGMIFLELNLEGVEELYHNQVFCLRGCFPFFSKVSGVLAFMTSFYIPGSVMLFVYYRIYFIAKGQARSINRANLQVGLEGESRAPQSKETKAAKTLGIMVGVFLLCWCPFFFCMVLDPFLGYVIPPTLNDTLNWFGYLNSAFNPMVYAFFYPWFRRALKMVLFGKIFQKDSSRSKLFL
Outline: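 Membranes from HEK293 cells stably expressing rat TAAR1 were used, with radioligand Kd determined by saturation for each batch. Compounds (10 pM to 10 μM, in duplicate) were incubated for 1 h at 4 °C. Bound radioactivity was collected by filtration onto PEI-soaked GF/C filters and counted by scintillation.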

mouse TAAR1, sequence (Q923Y8 whole entry): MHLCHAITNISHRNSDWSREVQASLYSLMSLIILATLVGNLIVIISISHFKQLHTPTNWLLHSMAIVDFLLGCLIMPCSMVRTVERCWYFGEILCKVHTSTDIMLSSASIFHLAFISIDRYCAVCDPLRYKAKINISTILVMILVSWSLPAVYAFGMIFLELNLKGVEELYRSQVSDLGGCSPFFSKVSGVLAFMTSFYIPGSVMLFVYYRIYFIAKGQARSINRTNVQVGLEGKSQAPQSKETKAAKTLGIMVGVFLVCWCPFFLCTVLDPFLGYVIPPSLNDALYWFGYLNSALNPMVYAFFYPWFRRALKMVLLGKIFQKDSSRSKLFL

| Ki (mouse TAAR1) [µM] | Ki (rat TAAR1) [µM] | SMILES |
| --- | --- | --- |
| 0.0069 | 0.0079 | Fc1cc([C@@H]2CNCCO2)ccc1Nc1ncc(C(F)(F)F)cn1 [Example 134, ((R)-2-Fluoro-4-morpholin-2-yl-phenyl)-(5-trifluoromethyl-pyrimidin-2-yl)-amine] |
| 0.0133 | 0.232 | Clc1cnc(Nc2ccc(C3CNCCO3)cc2)nc1 (racemic) [Example 6, (RS)-(5-Chloro-pyrimidin-2-yl)-(4-morpholin-2-yl-phenyl)-amine] |
| 0.0641 | 1.36 | COCCOc1cnc(Nc2ccc([C@H]3CNCCO3)cc2)nc1 [Example 138] |
| 0.0212 | 0.996 | CCOc1cnc(Nc2ccc([C@@H]3CCCNC3)cc2)nc1 [Example 114, (5-Ethoxy-pyrimidin-2-yl)-((S)-4-piperidin-3-yl-phenyl)-amine] |
| 0.0032 | 0.0065 | Clc1cnc(Nc2ccc([C@@H]3CNCCO3)c(Cl)c2)nc1 [Example 202, ((R)-3-Chloro-4-morpholin-2-yl-phenyl)-(5-chloro-pyrimidin-2-yl)-amine] |
| 0.0057 | 0.0198 | Fc1cc([C@H]2CNCCO2)ccc1Nc1ncc(C(F)(F)F)cn1 [Example 135, ((S)-2-Fluoro-4-morpholin-2-yl-phenyl)-(5-trifluoromethyl-pyrimidin-2-yl)-amine] |
| 0.0174 | 0.0796 | CC(C)Oc1cnc(Nc2ccc([C@@H]3CNCCO3)cc2)nc1 [Example 123, (5-Isopropoxy-pyrimidin-2-yl)-((R)-4-morpholin-2-yl-phenyl)-amine] |
| 0.0055 | 0.259 | COc1cnc(Nc2ccc([C@H]3CNCCO3)cc2)nc1 [Example 12, (5-Methoxy-pyrimidin-2-yl)-((S)-4-morpholin-2-yl-phenyl)-amine] |
| 0.001 | 0.0032 | FS(F)(F)(F)(F)c1ccc(Nc2ccc([C@@H]3CNCCO3)cc2)cc1 [Example 191, (4-Pentalluorosulfanyl-phenyl)-((R)-4-morpholin-2-yl-phenyl)-amine] |
| 0.0229 | 0.275 | c1nc(Nc2ccc(C3CNCCO3)cn2)ncc1C1CC1 (racemic) [Example 92, (RS)-5-Cyclopropyl-N-(5-(morpholin-2-yl)pyridin-2-yl)pyrimidin-2-amine] |
| 0.0119 | 0.149 | FC(F)(F)c1ccc(CNc2ccc([C@H]3CNCCO3)cc2)cc1 [Example 24, ((S)-4-Morpholin-2-yl-phenyl)-(4-trifluoromethyl-benzyl)-amine] |
| 0.0057 | 0.0223 | FC(F)(F)c1cnc(Nc2ccc([C@@H]3CNCCO3)cc2)nc1 [Example 95, ((R)-4-Morpholin-2-yl-phenyl)-(5-trifluoromethyl-pyrimidin-2-yl)-amine] |
| 0.0007 | 0.0118 | c1ccc2cc(Nc3ccc([C@H]4CNCCO4)cc3)ccc2c1 [Example 44, ((S)-4-Morpholin-2-yl-phenyl)-naphthalen-2-yl-amine] |
| 0.0034 | 0.0104 | CCc1cnc(Nc2ccc([C@H]3CNCCO3)cc2F)nc1 [Example 117, (5-Ethyl-pyrimidin-2-yl)-((S)-2-fluoro-4-morpholin-2-yl-phenyl)-amine] |
| 0.0591 | 0.502 | Brc1cnc(Nc2ccc([C@H]3CNCCO3)cc2)c(Br)c1 [Example 61, (S)-3,5-Dibromo-N-(4-(morpholin-2-yl)phenyl)pyridin-2-amine] |
| 0.0051 | 0.0494 | FC(F)(F)COc1cnc(Nc2ccc([C@H]3CNCCO3)cc2)nc1 [Example 136, ((S)-4-Morpholin-2-yl-phenyl)-[5-(2,2,2-trifluoro-ethoxy)-pyrimidin-2-yl]-amine] |
| 0.0079 | 0.0847 | CC(C)Oc1cnc(Nc2ccc([C@H]3CNCCO3)cc2)nc1 [Example 122, (5-Isopropoxy-pyrimidin-2-yl)-((S)-4-morpholin-2-yl-phenyl)-amine] |

| Ki (mouse TAAR1) [µM] | Ki (rat TAAR1) [µM] | SMILES |
| --- | --- | --- |
| 0.0704 | 0.584 | Clc1cnc(Nc2ccc([C@H]3CNCCO3)cc2)c(Cl)c1 [Example 58, (S)-3,5-Dichloro-N-(4-(morpholin-2-yl)phenyl)pyridin-2-amine] |
| 0.0021 | 0.0011 | Clc1cc(Nc2ncc(C3CC3)cn2)ccc1[C@@H]1CNCCO1 [Example 194, ((R)-3-Chloro-4-morpholin-2-yl-phenyl)-(5-cyclopropyl-pyrimidin-2-yl)-amine] |
| 0.27 | 1.08 | FC(F)(F)c1cccnc1Nc1ccc([C@H]2CNCCO2)cc1 [Example 41, (S)—N-(4-(Morpholin-2-yl)phenyl)-3-(trifluoromethyl)pyridin-2-amine] |
| 0.0139 | 0.177 | Cc1cc(C2CNCCO2)ccc1Nc1ncc(Br)cn1 (racemic) [Example 89, (RS)-5-Bromo-N-(2-methyl-4-(morpholin-2-yl)phenyl)pyrimidin-2-amine] |
| 1.34 | 1.76 | CNC(=O)c1cnc(Nc2ccc([C@@H]3CNCCO3)cc2)nc1 [Example 159, 2-((R)-4-Morpholin-2-yl-phenylamino)-pyrimidine-5-carboxylic acid methylamide] |
| 0.523 | 4.07 | CC(Nc1ccc([C@H]2CNCCO2)cc1)c1ccc(Cl)cc1 (mixture of isomers) [Example 70, [(RS)-1-(4-Chloro-phenyl)-ethyl]-((S)-4-morpholin-2-yl-phenyl)-amine] |
| 0.0357 | 1.24 | Clc1ccc(CNc2ccc([C@H]3CNCCO3)cc2)cn1 [Example 32, (S)—N-((6-Chloropyridin-3-yl)methyl)-4-(morpholin-2-yl)aniline] |
| 0.0008 | 0.0101 | FC(F)(F)c1cc(Nc2ccc([C@H]3CNCCO3)cc2)ncc1Cl [Example 82, (S)-5-Chloro-N-(4-(morpholin-2-yl)phenyl)-4-(trifluoromethyl)pyridin-2-amine] |
| 0.0043 | 0.0102 | Fc1cc(Nc2ncc(OCC(F)(F)F)cn2)ccc1[C@@H]1CNCCO1 [Example 207, (R)—N-(3-Fluoro-4-(morpholin-2-yl)phenyl)-5-(2,2,2-trifluoroethoxy)pyrimidin-2-amine] |
| 0.0028 | 0.0379 | Fc1cc([C@H]2CNCCO2)ccc1Nc1ncc(Cl)cn1 [Example 131, (5-Chloro-pyrimidin-2-yl)-((S)-2-fluoro-4-morpholin-2-yl-phenyl)-amine] |
| 0.373 | 1.49 | Clc1cc(Nc2ccc([C@H]3CNCCO3)cc2)c(Cl)cn1 [Example 63, (S)-2,5-Dichloro-N-(4-(morpholin-2-yl)phenyl)pyridin-4-amine] |
| 0.0038 | 0.197 | CCc1cnc(Nc2ccc([C@@H]3CCCNC3)cc2)nc1 [Example 112, (5-Ethyl-pyrimidin-2-yl)-((S)-4-piperidin-3-yl-phenyl)-amine] |
| 0.0014 | 0.0438 | Clc1ccc(Nc2ccc([C@@H]3CNCCO3)cc2)nc1 [Example 69, (R)-5-Chloro-N-(4-(morpholin-2-yl)phenyl)pyridin-2-amine] |
| 0.0386 | 5.25 | Cn1ccc(Nc2ccc(C3CNCCO3)cc2)n1 (racemic) [Example 140, (RS)-(1-Methyl-1H-pyrazol-3-yl)-(4-morpholin-2-yl-phenyl)-amine] |
| 0.0231 | 0.056 | Clc1cc(Nc2ccc([C@@H]3CNCCO3)cc2)ncn1 [Example 199, (R)-6-Chloro-N-(4-(morpholin-2-yl)phenyl)pyrimidin-4-amine] |
| 0.0514 | 1.64 | N#Cc1ccc(CNc2ccc([C@H]3CNCCO3)cc2)cc1 [Example 23, 4-[((S)-4-Morpholin-2-yl-phenylamino)-methyl]-benzonitrile] |

| SMILES | Ki (mouse TAAR1) [µM] | Ki (rat TAAR1) [µM] |
| --- | --- | --- |
| COCCOc1cnc(Nc2ccc([C@H]3CNCCO3)cc2F)nc1 [Example 152, ((S)-2-Fluoro-4-morpholin-2-yl-phenyl)-[5-(2-methoxy-ethoxy)-pyrimidin-2-yl]-amine] | 0.0196 | 0.268 |
| COc1cccc(CNc2ccc([C@H]3CNCCO3)cc2)n1 [Example 28, (6-Methoxy-pyridin-2-ylmethyl)-((S)-4-morpholin-2-yl-phenyl)-amine] | 0.276 | 0.561 |
| COc1ccc(-c2cnc(Nc3ccc([C@H]4CNCCO4)cc3)nc2)cc1OC [Example 141] | 0.0027 | 0.0129 |
| CCCc1cnc(Nc2ccc([C@@H]3CNCCO3)cc2)nc1 [Example 93, ((R)-4-Morpholin-2-yl-phenyl)-(5-propyl-pyrimidin-2-yl)-amine] | 0.005 | 0.0222 |
| CN(c1ccc(Cl)cc1)c1ccc([C@H]2CNCCO2)cc1 [Example 60, (4-Chloro-phenyl)-methyl-((S)-4-morpholin-2-yl-phenyl)-amine] | 0.0222 | 0.758 |
| c1ccc(-n2ccc(Nc3ccc([C@@H]4CNCCO4)cc3)n2)cc1 [Example 164, ((R)-4-Morpholin-2-yl-phenyl)-(1-phenyl-1H-pyrazol-3-yl)-amine] | 0.0006 | 0.025 |
| c1coc(-c2cnc(Nc3ccc([C@H]4CNCCO4)cc3)nc2)c1 [Example 147, (5-Furan-2-yl-pyrimidin-2-yl)-((S)-4-morpholin-2-yl-phenyl)-amine] | 0.0009 | 0.0197 |
| COCCOc1cnc(Nc2ccc([C@@H]3CNCCO3)cc2F)nc1 [Example 151, ((R)-2-Fluoro-4-morpholin-2-yl-phenyl)-[5-(2-methoxy-ethoxy)-pyrimidin-2-yl]-amine] | 0.048 | 0.0954 |
| CCc1cnc(Nc2ccc([C@@H]3CNCCO3)cc2)nc1 [Example 68, (R)-5-Ethyl-N-(4-(morpholin-2-yl)phenyl)pyrimidin-2-amine] | 0.0094 | 0.0751 |
